Test results as given in patent US20100256385A1, “PROSTAGLANDIN E RECEPTOR ANTAGONISTS” (ALLERGAN, INC., priority 2009, published 2010).

How the values were obtained:
[1] = tested on: human osteoclasts; assay: Calcium Response in human osteoclasts; format: cell-based; settings: for Calcium Response: agonist alone (FIG. 1, FIG. 2)

SMILES | melting point [°C] | Block of the Calcium Response initiated by PGE2 ([1]; response initiated by PGE2 (FIG. 3)) | Calcium Response [1]
O=C(CCc1ccc(F)cc1C[C@@H]1[C@H](c2nc(C(=O)NCCCCC3CCCCC3)co2)[C@H]2CC[C@H]1O2)NC(CO)CO [Example 1, N-(1,3-Dihydroxyprop-2-yl)-3-(2-{(1R,2R,3S,4R)-3-[4-(4-cyclohexyl-butylcarbamoyl)-oxazol-2-yl]-7-oxa-bicyclo[2.2.1]hept-2-ylmethyl}-4-fluoro-phenyl)-propionamide] | 165 to 166 | blocked | –
CCCCC[C@H](O)/C=C/[C@H]1[C@H](O)CC(=O)[C@@H]1C/C=C\CCCC(=O)OCC(O)CO (stereo partly shown) [PG-2 Glycerol Ester] | – | – | induces a Calcium Response
CCCCC[C@H](O)/C=C/[C@H]1[C@H](O)CC(=O)[C@@H]1C/C=C\CCCC(=O)O [PG-2] | – | – | does not cause a Calcium Response
